Columns and labels:
Daudi = assay: Concentration of compound to inhibit half of cell growth in malignant human lymphocytes: Daudi lymphoma cells; assay type: functional, cell-based; set-up: unit not given here
Mus musculus [1] = species on record: Mus musculus; assay: Cytotoxicity was evaluated on mice spleen lymphocytes stimulated by Phaseolus Vulgaris Phytohemagglutininin (PHA) after 48 hours; assay type: functional; set-up: unit not given here
Mus musculus [2] = species on record: Mus musculus; assay: Cytotoxicity was evaluated on mice spleen lymphocytes stimulated by Phaseolus Vulgaris Phytohemagglutininin (PHA) after 72 hours; assay type: functional; set-up: unit not given here
Mus musculus [3] = species on record: Mus musculus; assay: Cytotoxicity of compound was evaluated on mice spleen lymphocytes stimulated by Phaseolus Vulgaris Phytohemagglutininin (PHA) after 48 hours; assay type: functional

Compound | IC50 (Daudi) | IC50 (Mus musculus [1]) | IC50 (Mus musculus [2]) | IC50 (Mus musculus [3])
CCOC(=O)/C=C/[C@H]1OCC/C(=C\COCc2ccccc2)[C@@H]1O[Si](C)(C)C(C)(C)C | 0.6 | 0.7 | 1.4 | 
CCOC(=O)/C=C/[C@H]1OCC/C(=C\C(=O)OCC)[C@@H]1O[Si](C)(C)C(C)(C)C | 9.3 |  | 17.6 | 8.8 M ml-1
COC(=O)CC(O)[C@H]1OCC/C(=C\COCc2ccccc2)C1O[Si](C)(C)C(C)(C)C (stereo not given in full) | 10 | 20 | 20 | 
O=C1CC(O)[C@H]2OCC/C(=C\COCc3ccccc3)C2O1 (stereo not given in full) | 3.5 | 8.8 | 13 | 
CCOC(=O)/C=C/C=C/[C@H]1OCC/C(=C\C(=O)OCC)[C@@H]1O[Si](C)(C)C(C)(C)C | 2.2 | 0.73 | 1.1 | 

— ChEMBL document CHEMBL1125808, “Studies on the macrocyclic part of the trichothecene satratoxin: partial synthesis and structure-activity relationship” (Bioorg Med Chem Lett, 1991)
